Values quoted from earlier work as cited in US20250275556A1, “N[…] METHOD FOR PRODUCING THE SAME” (Kalium Agri, Inc., priority 2024, published 2025).

Conditions: magnesium supplement in cattle, in optimal situations

For `[O]=[Mg]` [magnesium oxide], the digestible is listed as 19%.
